Reference: PubChem BioAssay (NCI)
Several values for one entry are separate records, joined by “and”; a condition that tells them apart may be missing. Identical values can stand only once.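 Assay format: 96-well plates, 48-hour exposure. GI50: concentration for 50% inhibition of growth. TGI: total growth inhibition.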

Experiments:
Assay in all cases: growth of human tumour cells (NCI), 48 h
[1] = tested on: HS 578T breast
[2] = tested on: RPMI-8226 leukemia
[3] = tested on: SK-MEL-28 melanoma
[4] = tested on: UACC-62 melanoma
[5] = tested on: KM12 colon
[6] = tested on: SF-295 CNS
[7] = tested on: T-47D breast
[8] = tested on: SR leukemia
[9] = tested on: SW-620 colon
[10] = tested on: OVCAR-3 ovarian

| Compound | GI50 [1] | TGI [1] | GI50 [2] | TGI [2] | GI50 [3] | TGI [3] | GI50 [4] | TGI [4] | GI50 [5] | TGI [5] | GI50 [6] | TGI [6] | GI50 [7] | TGI [7] | GI50 [8] | GI50 [9] | TGI [9] [µM] | GI50 [10] | TGI [10] | TGI [8] |
| --- | --- | --- | --- | --- | --- | --- | --- | --- | --- | --- | --- | --- | --- | --- | --- | --- | --- | --- | --- | --- |
| COc1ccc2c(c1)C(=O)c1c-2n(CCCN(C)C)c(=O)c2cc([N+](=O)[O-])ccc12 | 3.04 µM | 21.3 µM | < 0.01 µM | 0.0707 µM | 0.192 µM | 2.59 µM | < 0.01 µM | < 0.01 µM | 0.025 µM | 0.556 µM | < 0.01 µM | < 0.0188 µM | < 0.01 µM | 21.6 µM | < 0.01 µM | < 0.01 µM | 1.34 | 0.0191 µM | 0.748 µM | – |
| COc1ccc2c(c1)nnc1c3cccnc3[nH]c21 | 3.47 µM and 4.89 µM | 25.5 µM and 81.2 µM | 0.725 µM and 0.487 µM | 2.98 µM and 5.53 µM | 11.8 µM and 11.2 µM | 50 µM and > 100 µM | 0.908 µM and 2.11 µM | 6.93 µM and 12.6 µM | 1.22 µM and 1.92 µM | 5.89 µM and 13.4 µM | – | 11.3 µM and > 100 µM | 0.492 µM and 0.224 µM | 2.61 µM and 4.21 µM | 0.0313 µM and 0.0336 µM | 0.378 µM and 0.978 µM | – | 0.964 µM and 1.17 µM | 2.43 µM and 4.09 µM | – |
| COc1ccc(-c2[nH]ncc2Nc2cc(OC)c(OC)c(OC)c2)cc1 | 1.3 µM | 4.65 µM | 1.38 µM | 5.04 µM | 2.57 µM | > 100 µM | 0.704 µM | 69.8 µM | 0.63 µM | 22.7 µM | 1.31 µM | > 21.1 µM | 4.07 µM | > 100 µM | 0.36 µM | 0.558 µM | > 100 | 0.962 µM | 3.69 µM | > 100 µM |
| COc1ccc2nc3ccccc3c(NCCNCC(C)O)c2c1 (stereo unspecified) | 1.1 µM | 12.2 µM | 0.398 µM | 2.66 µM | 0.539 µM | 2.77 µM | 0.354 µM | 2.08 µM | 0.536 µM | 14.2 µM | 0.36 µM | 4.02 µM | 0.465 µM | 6.27 µM | 0.278 µM | 0.3 µM | 12.5 | 0.449 µM | 9.4 µM | 10.8 µM |
| CCCCCCCCN=C(NCCCCCCCC)SCc1cccc2ccccc12 | 1.61 µM | 3.81 µM | 2.05 µM | 4.4 µM | 1.95 µM | 3.44 µM | 1.72 µM | 3.22 µM | 1.68 µM | 3.19 µM | 1.51 µM | 3.02 µM | 1.55 µM | 3.01 µM | 0.427 µM | 1.65 µM | 3.36 | 1.72 µM | 3.21 µM | 2.39 µM |
| Cc1ccc(-c2nc3sc(C)cn3c2/C=C2\C(=O)Nc3ccc(Cl)cc32)cc1 | 8.02 µM | 73.7 µM | 22.4 µM | 58.6 µM | 18 µM | 34.5 µM | 13.3 µM | 27.7 µM | 20.6 µM | 48.5 µM | 8.2 µM | 32.9 µM | 42.2 µM | > 100 µM | 10.8 µM | 19.1 µM | 52.1 | 24.6 µM | 62.8 µM | 36.7 µM |
| CCS(=O)(=O)c1ccc(OC)c(Nc2ncc(-c3cccc(F)c3)o2)c1 | 2.5 µM | > 22.3 µM | > 25 µM | > 25 µM | > 25 µM | > 25 µM | > 25 µM | > 25 µM | 0.649 µM | > 25 µM | > 25 µM | > 25 µM | > 25 µM | > 25 µM | > 25 µM | > 25 µM | > 25 | > 25 µM | > 25 µM | > 25 µM |
| COc1ccc2c(c1)/C(=N/OC(C)=O)c1c-2c(OC)nc2ccccc12 | 48.1 µM | > 100 µM | > 100 µM | > 100 µM | > 100 µM | > 100 µM | > 100 µM | > 100 µM | > 100 µM | > 100 µM | > 100 µM | > 100 µM | 27.7 µM | > 100 µM | 21.6 µM | > 100 µM | > 100 | > 100 µM | > 100 µM | > 100 µM |
| CC(C)(C)[Si](C)(C)OC1[C@@H](COC(=O)NC(=O)CCl)O[C@@H](n2cnc3c(N)ncnc32)[C@H]1O[Si](C)(C)C(C)(C)C (stereo partly specified) | 7.62 µM | 19.3 µM | 1.54 µM | 5.63 µM | 7.12 µM | 13.7 µM | 6.14 µM | 12.7 µM | 2.55 µM | 6.48 µM | 7.52 µM | 14.3 µM | 4.94 µM | 11.1 µM | 0.357 µM | 1.73 µM | 6.54 | 2.66 µM | 8.32 µM | 1.31 µM |
| O=C1/C(=C/c2ccc([N+](=O)[O-])o2)Oc2ccc(Cl)cc21 | 2.95 µM | > 27.6 µM | 1.37 µM | 4.72 µM | 1.71 µM | 3.38 µM | 1.58 µM | 3.41 µM | 1.88 µM | 3.68 µM | 11.5 µM | 49.1 µM | 1.67 µM | 5.02 µM | 0.267 µM | 0.541 µM | 1.99 | 1.7 µM | 3.19 µM | 1.26 µM |
| COc1ccc2c(c1)-c1c(c3cc(OC)ccc3n(CCN(C)C)c1=O)C2=O | 1.7 µM | 7.81 µM | 0.445 µM | 1.97 µM | 2.59 µM | 8.73 µM | 3.11 µM | 9.73 µM | 0.304 µM | 1.28 µM | 0.714 µM | 2.99 µM | 3.23 µM | 11.4 µM | 0.592 µM | 0.208 µM | 2.95 | 0.843 µM | 4.73 µM | 2.64 µM |
| CCOC(=O)/C=C1/SC(=Nc2ccc(C#N)cc2)N(Cc2ccco2)C1=O | 6.96 µM | > 100 µM | 2.4 µM | 7.46 µM | 2.92 µM | 10.5 µM | 2.23 µM | 5.25 µM | 2.13 µM | 5.01 µM | 9.99 µM | 26.6 µM | 2.57 µM | 8.24 µM | 2.71 µM | 2.06 µM | 4.97 | 1.82 µM | 3.52 µM | 8.41 µM |
| CN(C)c1ccc2[nH]c3c(C(N)=O)cc(=O)c(=O)c=3oc2c1 | 0.973 µM | 8.31 µM | 0.502 µM | > 100 µM | 4.2 µM | > 100 µM | 1.74 µM | 5.32 µM | 3.33 µM | > 100 µM | 3.22 µM | > 100 µM | 1.81 µM | > 100 µM | 0.942 µM | 2.02 µM | > 100 | 0.508 µM | 6.85 µM | 8.49 µM |
| N=C(CC(=O)Nc1ccccn1)c1ccccc1 | – | > 100 µM | – | > 100 µM | – | > 100 µM | – | > 100 µM | – | > 100 µM | – | > 100 µM | – | > 100 µM | – | – | > 100 | – | > 100 µM | > 100 µM |
| COC(=O)CC1=C(C)/C(=C/c2[nH]c(-c3ccc[nH]3)cc2OC)N=C1C | 0.423 µM | 2.14 µM | 0.0449 µM | 0.499 µM | 0.456 µM | 2.53 µM | 0.216 µM | 0.56 µM | 0.118 µM | 2.12 µM | 0.332 µM | 1.69 µM | 0.255 µM | 1.52 µM | 0.133 µM | 0.148 µM | 1.36 | 0.204 µM | 1.36 µM | 0.677 µM |
| CNC(=O)c1cc(Oc2ccc(NC(=O)Nc3cc(C(C)(C)C)nn3-c3ccc4ncccc4c3)c(F)c2)ccn1 | 1.14 µM and 1.03 µM | 5.42 µM and 5.03 µM | 2.4 µM and 2.5 µM | 6.51 µM and 5.91 µM | 0.264 µM and 0.297 µM | 2.62 µM and 2.8 µM | 0.0743 µM and 0.0624 µM | 1.62 µM and 1.18 µM | 0.0422 µM and 0.0433 µM | 5.19 µM and 5.41 µM | 1.69 µM and 1.58 µM | 8.26 µM and 5.62 µM | 0.907 µM and 1.79 µM | 7.17 µM and > 29.3 µM | 0.633 µM and 0.497 µM | 3.51 µM and 3.16 µM | > 29.6 | 2.36 µM and 2.21 µM | 7.96 µM and 6.35 µM | 3.91 µM and 3.85 µM |
| O=C1Cc2cc(CCN3CCNCC3)c(Cl)cc2N1 | 1.57 µM | > 100 µM | 6.03 µM | > 100 µM | 37 µM | > 100 µM | 6.54 µM | > 100 µM | 3.96 µM | > 100 µM | 4.2 µM | > 100 µM | 29.1 µM | > 100 µM | 6.2 µM | 4.98 µM | > 100 | 14.1 µM | > 100 µM | > 100 µM |
| CCC(c1ccccc1)c1cc(C(C)(C)C)cc(C(C)(C)C)c1O (stereo unspecified) | – | 32.3 µM | – | 28.5 µM | – | 32.5 µM | – | 32.2 µM | – | 32.3 µM | – | 26.9 µM | – | 29.6 µM | – | – | 30.5 | – | 27.2 µM | > 100 µM |
| CC(=O)c1c(C)c2cnc(Nc3ccc(N4CCNCC4)cn3)nc2n(C2CCCC2)c1=O | 14.9 µM | 42.2 µM | 0.268 µM | 32.1 µM | 12.3 µM | 25.7 µM | 11 µM | 23.9 µM | 0.623 µM | 13.9 µM | 12.9 µM | 28.9 µM | 14.5 µM | 32.6 µM | 1.88 µM | 0.332 µM | 19.1 | 15.9 µM | 30.4 µM | 20.7 µM |
